From PMC6628379, “Synthesis and Biological Evaluation of Novel Selenyl and Sulfur-L-Dopa Derivatives as Potential Anti-Parkinson’s Disease Agents” (Biomolecules, 2019)
Entries after “also recorded” stand apart in the source; their conditions may differ. Structures can show the parent of a compound that is named as a salt. Where two headings read alike, the source gives them in different places. Where a SMILES comes first, the peptide text is derived from it. [ ]: non-standard residue; d: D form. dDopa = N[C@H](Cc1ccc(O)c(O)c1)C(=O)O; dSeMet = C[Se]CC[C@@H](N)C(=O)O

Columns and labels:
[1] = tested on: differentiated SH-SY5Y human neuroblastoma cells; test: MTT cell viability, RA/PMA-differentiated SH-SY5Y cells; format: cell-based; conditions: dopaminergic differentiated cells, 48 h, 100 µM
[2] = tested on: undifferentiated SH-SY5Y human neuroblastoma cells; test: MTT cell viability, undifferentiated SH-SY5Y cells; format: cell-based
[3] = tested on: RA/PMA-differentiated and 6-OHDA-lesioned SH-SY5Y human neuroblastoma cells; test: Neuroprotection against 6-OHDA (MTT); format: cell-based; conditions: 1 µM
Method: (§1) In order to obtain a dopaminergic phenotype, the cells were treated with retinoic acid (RA)/phorbol 12-myristate 13-acetate (PMA) in a medium supplemented with RA (10 μM) for three days; then, the medium was removed and replaced with growth medium containing PMA (80 nM) for three days.
(§2) SP1–6 were dissolved in dimethyl sulfoxide (DMSO). SH-SY5Y cells were plated onto 96-well plates (2700 cell/well). The undifferentiated cells (UC) were grown for 24 h in normal medium and then incubated with seven different compounds at different concentrations (1, 10, and 100 µM). […] After 24 h and 48 h of incubation with or without the compounds, the both sets of cells (UC and DC) were assessed for viability by using a colorimetric assay of 3-[4,5-dimethylthiazol-2-yl]-2,5-diphenyltetrazolium bromide (MTT). The differentiated SH-SY5Y cells were treated with SP6 or LD compounds at 1 µM for 1 h and then exposed to 25, 50, 75, and 150 µM 6-OHDA. After a further 24 h of incubation, the cultures were assessed for viability using an MTT assay. For experiments with the neurotoxin H2O2, the differentiated SH-SY5Y cells were pretreated with SP6 or LD compounds at 1 µM for 24 h and then exposed to 25, 150, and 300 µM H2O2 for a further 24 h. Cell viability was detected using the MTT assay.

[4] = tested on: differentiated SH-SY5Y neuroblastoma cells; test: Nitroblue tetrazolium (NBT) assay; format: cell-based, human; conditions: 1 µM, 24 h incubation
Method: The differentiated SH-SY5Y cells were treated with SP6 and/or LD compounds at 1 µM for 24 h, and then 10^6 cells were harvested, centrifuged for 5 min at 1200 rpm, and resuspended in 1 mL 0.9% NaCl, in which NBT (nitro blue tetrazolium chloride, 1 mg/mL) was dissolved. The cells were incubated for 3 h at 37 °C, centrifuged (10 min at 1200 rpm), resuspended in 1 mL dimethyl sulfoxide, and left for 20 min at 37 °C. Then, cells were plated in a 96 well plate (2 x 10^5 cell/well) and read at 550 nm using a scanning multi-well spectrophotometer (Cary50MPR, Varian).

[5] = Octanol/water partition coefficient (logP o/w); format: physicochemical; conditions: n-octanol / phosphate buffer pH 7.4, HPLC
Method: The clogP values were calculated using ACD LogP software package, version 4.55 (Advanced Chemistry Development Inc., Toronto, Canada). Octanol/water partition coefficients (logP o/w) were determined by placing 5 mg of SP into 1 mL of anhydrous n-octanol and an equal volume of phosphate buffer pH 7.4. After vigorously shaking, the resulting mixture was allowed to stand until the complete separation of the two phases. Finally, each phase was filtered and analyzed using HPLC [16].

[6] = tested on: differentiated and H2O2-lesioned SH-SY5Y human neuroblastoma cells; test: Neuroprotection against H2O2 (MTT); format: cell-based; conditions: 1 µM
Method: as §1, §2

[7] = tested on: differentiated SH-SY5Y human neuroblastoma cells; test: Intracellular ROS measurement (H2DCFDA assay); format: cell-based; conditions: 1 µM for 24 h, then 25 µM H2O2; 2.5 and 5 min; vs CTRL + 25 µM H2O2
Method: SHSY-5Y human neuroblastoma cells were plated (2700 cells/well) into special optics 96-well plates (Corning-Costar, New York, USA) and the cells were treated with retinoic acid (RA)/phorbol 12-myristate 13-acetate (PMA) in order to obtain a dopaminergic phenotype. The differentiated cells were treated with SP1-6 at 1 μM for 24 h and then washed with an imaging buffer (125 mM NaCl, 5 mM KCl, 1.2 mM MgSO4, 5 mM glucose, 25 mM HEPES, and 2 mM CaCl2). A concentration of 10 μM of 2',7'-dichlorofluorescin diacetate (H2DCFDA, Molecular probes, Life Technologies REF […]) was added and the plates were incubated at 37 °C for 30 min. After the incubation, cells were washed with an imaging buffer and treated with 25 μM H2O2 for an immediate fluorescence measurement. Plates were read every 50 s from 0 to 5 min for kinetic data analysis using a microplate reader (Synergy H1, BioTek), with excitation and emission wavelengths at 490 nm and 520 nm, respectively, and analyzed by Gen 5 version 2.08 (BioTek).

[8] = BBB-PAMPA (parallel artificial membrane permeability); format: in vitro ADME, porcine; conditions: for Classification: PAMPA-BBB class by Pe; for Papp at 16 h: pig, PAMPA-BBB, 16 h at room temperature, pH 7.4, read-out: Pe; for capacity to cross the BBB: BBB-PAMPA
Method: The blood–brain barrier (BBB)-PAMPA method was used to evaluate the ability of SPs to cross the BBB via passive diffusion. The artificial membrane of each microplate was coated with 5 µL of a porcine polar brain lipid extract mixture (purchased from Avantis Polar Lipids, Alabaster, AL, USA). A total of 150 µL of drug solution was put on the membrane (donor plate) while the bottom plate was filled with 300 µL of buffer solution (acceptor plate). The system was incubated for 16 h at room temperature and then the concentration of the drug in the acceptor plate was evaluated using HPLC. The concentration of the drug at the theoretical equilibrium was determined diluting 500 µM of SP solution with phosphate buffer pH 7.4 and then analyzed using HPLC [18]. Pe (10^−6 cm/s) was calculated as the effective permeability coefficient.

[9] = Stability in human plasma; format: in vitro ADME; conditions: for half-life at 1 mg/mL: human, 80% human plasma with 20% 0.02 M phosphate buffer
Method: Human plasma was purchased from 3H Biomedical (Uppsala, Sweden, Europe). SP stock solution was added to a mixture of 80% plasma and 20% of 0.02 M phosphate buffer (pH 7.4) at 37 °C to obtain a final drug concentration of 1 mg/mL. Samples of 100 μL were taken at various times, and 200 μL of MeOH containing 0.01 M HCl was used to stop the enzymatic activity. The samples were centrifuged for 5 min at 5000× g, and the resultant supernatants were filtered and analyzed using HPLC [17].

[10] = 24 h, all tested concentrations (1, 10, 100 µM)
[11] = 24 h before and during 24 h with 150 µM H2O2
[12] = 24 h before and during 24 h with 300 µM H2O2
[13] = 80% human plasma, 20% 0.02 M phosphate buffer pH 7.4, 37 °C
[14] = pH 7.4, 80% human plasma, 20% 0.02 M phosphate buffer pH 7.4, 37 °C, read-out: t1/2
[15] = pH 7.4, human plasma, read-out: half-life

SMILES | cytotoxic effect [1] | cytotoxic effect [2, 10] | cytotoxic effect ([2]; 48 h, 100 µM) | protection against 6-OHDA toxicity (cell viability) ([3]; 1 h before and during 24 h with 150 µM 6-OHDA) | superoxide anion level [4] | logP [5] | protection against H2O2 toxicity (cell viability) [6, 11] | protection against H2O2 toxicity (cell viability) [6, 12] | antioxidant activity (intracellular ROS) [7] | Classification [8] | Papp at 16 h [8] | Kobs [9, 13] | half-life at 1 mg/mL [9, 14] | capacity to cross the BBB [8] | t1/2 [9, 13] | half-life at 1 mg/mL [9, 15] | protection against 6-OHDA toxicity (cell viability) ([3]; 1 h before and during 24 h with 25, 50, 75, 150 µM 6-OHDA) | stability in plasma ([9]; human plasma)
N[C@@H](Cc1ccc(O)c(O)c1)C(=O)O [LD, L-p-3,4-dihydroxyphenylalanine hydrochloride, reference compound] | detrimental effect | did not show cytotoxic effects | toxic effect | partially counteract the toxic effect | seemed to increase it; also recorded: increase in superoxide anion levels | -2.46 | ineffective | ineffective | significant antioxidant activity | CNS^− (CNS^− (indicative of low BBB permeation): Pe (10^−6 cm/s) < 2) | 0.75 ×10⁻⁶ cm/s |  |  |  |  |  |  | 
COC(=O)[C@@H](Cc1ccc(OC(C)=O)c(OC(C)=O)c1)NC(=O)CSSCC(=O)N[C@H](Cc1ccc(OC(C)=O)c(OC(C)=O)c1)C(=O)OC [SP1, Methyl (2R)-3-[3,4-bis(acetyloxy)phenyl]-2-{2-[({[(2R)-3-[3,4-bis(acetyloxy)phenyl]-1-methoxy-1-oxopropan-2-yl]carbamoyl}methyl)disulfanyl]acetamido}propanoate] |  |  |  |  |  | -0.163 |  |  |  | CNS^− (CNS^− (indicative of low BBB permeation): Pe (10^−6 cm/s) < 2) | 1.15 ×10⁻⁶ cm/s | 0.024 (±0.001) min^−1 | 0.48 h |  |  |  |  | 
COC(=O)[C@@H](Cc1ccc(OC(C)=O)c(OC(C)=O)c1)NC(=O)CCSSCCC(=O)N[C@H](Cc1ccc(OC(C)=O)c(OC(C)=O)c1)C(=O)OC [SP2, Methyl (2R)-3-[3,4-bis(acetyloxy)phenyl]-2-{3-[(2-{[(2R)-3-[3,4-bis(acetyloxy)phenyl]-1-methoxy-1-oxopropan-2-yl]carbamoyl}ethyl)disulfanyl]propanamido}propanoate] |  |  |  |  |  | 0.828 |  |  |  | CNS^− (CNS^− (indicative of low BBB permeation): Pe (10^−6 cm/s) < 2) | 1.82 ×10⁻⁶ cm/s | 0.010 (±0.001) min^−1 | 1.1 h |  |  |  |  | 
COC(=O)[C@@H](Cc1ccc(OC(C)=O)c(OC(C)=O)c1)NC(=O)[C@@H](CSSC[C@@H](NC(C)=O)C(=O)N[C@H](Cc1ccc(OC(C)=O)c(OC(C)=O)c1)C(=O)OC)NC(C)=O [SP3, Methyl (2R)-3-[3,4-bis(acetyloxy)phenyl]-2-[(2S)-3-{[(2S)-2-{[(2R)-3-[3,4-bis(acetyloxy)phenyl]-1-methoxy-1-oxopropan-2-yl]carbamoyl}-2-acetamidoethyl]disulfanyl}-2-acetamidopropanamido]propanoate] |  |  |  |  |  | 1.07 |  |  |  |  | 3.1 ×10⁻⁶ cm/s | 0.014 (±0.003) min^−1 | 0.837 h | possess the capacity to cross the BBB |  |  |  | 
COC(=O)[C@@H](Cc1ccc(OC(C)=O)c(OC(C)=O)c1)NC(=O)C[Se][Se]CC(=O)N[C@H](Cc1ccc(OC(C)=O)c(OC(C)=O)c1)C(=O)OC [SP4, Methyl (2R)-3-[3,4-bis(acetyloxy)phenyl]-2-{2-[({[(2R)-3-[3,4-bis(acetyloxy)phenyl]-1-methoxy-1-oxopropan-2-yl]carbamoyl}methyl)diselanyl]acetamido}propanoate] |  |  |  |  |  | -1.17 |  |  |  | CNS^+ (CNS^+ (indicative of high BBB permeation): Pe (10^−6 cm/s) > 4) | 0.94 ×10⁻⁶ cm/s | Immediate hydrolysis |  |  | Immediate hydrolysis |  |  | 
COC(=O)[C@@H](Cc1ccc(O)c(O)c1)NC(=O)[C@@H](CC[Se]C)NC(C)=O [SP5, Methyl (2R)-3-(3,4-dihydroxyphenyl)-2-[(2R)-2-acetamido-4-(methylselanyl)butanamido]-propanoate] (Ac-[dSeMet]-[dDopa]-OMe) |  |  |  |  |  | 0.51 |  |  |  | CNS^− (CNS^− (indicative of low BBB permeation): Pe (10^−6 cm/s) < 2) | 2.3 ×10⁻⁶ cm/s | 0.005 (±0.0001) min^−1 | 2.1 h | unable to completely cross the BBB |  | > 2 h |  | 
COC(=O)[C@@H](Cc1ccc(OC(C)=O)c(OC(C)=O)c1)NC(=O)[C@@H](CC[Se]C)NC(C)=O [SP6, Methyl (2R)-3-[3,4-bis(acetyloxy)phenyl]-2-[(2R)-2-acetamido-4-(methylselanyl)butanamido]-propanoate] |  | did not show cytotoxic effects |  |  | significantly reduced the superoxide anion level | 1.44 | effective in countering the toxic effect | partially countered | significant antioxidant activity; also recorded: able to reduce ROS levels |  | 4.5 ×10⁻⁶ cm/s | 0.004 (±0.0001) min^−1 | 2.89 h | possess the capacity to cross the BBB |  | > 2 h | protective action against the toxin at all tested concentrations | resistant to the enzymatic hydrolyses by plasma esterases
